From US9562085B2, “Antimicrobial peptide” (priority 2013, dated 2017)
Non-standard residues stand in square brackets, D forms with d. Residues, ends and D or L forms follow the SMILES beside them.

system: S. aureus JAR; type: cell-based; details: JAR, 2 h
Method: S. aureus JAR is described in Campoccia et al. (Int. J. Artif. Organs, 2008 September; 31(9):841-7).
For the in vitro killing assay with P10 variants, S. aureus JAR ([…] CFU/ml) were incubated for 2 hours at 37° C. with various concentrations of the peptides in PBS or in PBS/human plasma (1/1, v/v). […] The LC99.9 is the average value of two independent experiments.

**Q.** `CC[C@H](C)[C@H](NC(=O)[C@H](CCCCN)NC(=O)[C@H](CCCCN)NC(=O)[C@H](Cc1ccc(O)cc1)NC(=O)[C@@H](CCC(=O)O)NC(=O)[C@H](CCCNC(=N)N)NC(=O)[C@H](C)NC(=O)[C@H](CC(C)C)NC(C)=O)C(=O)N[C@H](C(=O)N[C@@H](CCC(=O)O)C(=O)N[C@@H](CCCCN)C(=O)N[C@@H](CC(C)C)C(=O)N[C@@H](CCCCN)C(=O)N[C@@H](CCCNC(=N)N)C(=O)N[C@@H](Cc1c[nH]c2ccccc12)C(=O)N[C@@H](CC(C)C)C(=O)N[C@@H](CCCNC(=N)N)C(=O)N[C@@H](CCC(N)=O)C(=O)N[C@H](C(=O)N[C@@H](CC(C)C)C(=O)N[C@@H](CCCNC(=N)N)C(=O)N[C@H](C(=O)N[C@@H](CC(C)C)C(=O)N[C@@H](CCCNC(=N)N)C(N)=O)[C@@H](C)O)C(C)C)C(C)C` [Peptide 1301-4, JLAReYKKIVEKLKRWLRQVLRTLRB] (Ac-LAR[dE]YKKIVEKLKRWLRQVLRTLR-NH2) was tested. Which “LC99.9 (μM) (50% plasma)” value did it give?
**A.** Its value is 38.4 µM.

**Q.** What about the “LC99.9 (μM) (PBS)” value of the same compound?
**A.** The value was 0.6 µM.

**Q.** For `CC[C@H](C)[C@H](NC(=O)[C@H](CCCCN)NC(=O)[C@H](CCCCN)NC(=O)[C@@H](Cc1ccc(O)cc1)NC(=O)[C@H](CCC(=O)O)NC(=O)[C@H](CCCNC(=N)N)NC(=O)[C@H](C)NC(=O)[C@H](CC(C)C)NC(C)=O)C(=O)N[C@H](C(=O)N[C@@H](CCC(=O)O)C(=O)N[C@@H](CCCCN)C(=O)N[C@@H](CC(C)C)C(=O)N[C@@H](CCCCN)C(=O)N[C@@H](CCCNC(=N)N)C(=O)N[C@@H](Cc1c[nH]c2ccccc12)C(=O)N[C@@H](CC(C)C)C(=O)N[C@@H](CCCNC(=N)N)C(=O)N[C@@H](CCC(N)=O)C(=O)N[C@H](C(=O)N[C@@H](CC(C)C)C(=O)N[C@@H](CCCNC(=N)N)C(=O)N[C@H](C(=O)N[C@@H](CC(C)C)C(=O)N[C@@H](CCCNC(=N)N)C(N)=O)[C@@H](C)O)C(C)C)C(C)C` [Peptide 1301-5, JLAREyKKIVEKLKRWLRQVLRTLRB] (Ac-LARE[dY]KKIVEKLKRWLRQVLRTLR-NH2), which “LC99.9 (μM) (50% plasma)” value is on record?
**A.** The value was 38.4 µM.

**Q.** What about the “LC99.9 (μM) (PBS)” value of the same compound?
**A.** Its value is 0.6 µM.

**Q.** Which results are given for `CC[C@H](C)[C@H](NC(=O)[C@H](CCCCN)NC(=O)[C@@H](CCCCN)NC(=O)[C@H](Cc1ccc(O)cc1)NC(=O)[C@H](CCC(=O)O)NC(=O)[C@H](CCCNC(=N)N)NC(=O)[C@H](C)NC(=O)[C@H](CC(C)C)NC(C)=O)C(=O)N[C@H](C(=O)N[C@@H](CCC(=O)O)C(=O)N[C@@H](CCCCN)C(=O)N[C@@H](CC(C)C)C(=O)N[C@@H](CCCCN)C(=O)N[C@@H](CCCNC(=N)N)C(=O)N[C@@H](Cc1c[nH]c2ccccc12)C(=O)N[C@@H](CC(C)C)C(=O)N[C@@H](CCCNC(=N)N)C(=O)N[C@@H](CCC(N)=O)C(=O)N[C@H](C(=O)N[C@@H](CC(C)C)C(=O)N[C@@H](CCCNC(=N)N)C(=O)N[C@H](C(=O)N[C@@H](CC(C)C)C(=O)N[C@@H](CCCNC(=N)N)C(N)=O)[C@@H](C)O)C(C)C)C(C)C` [Peptide 1301-6, JLAREYkKIVEKLKRWLRQVLRTLRB] (Ac-LAREY[dK]KIVEKLKRWLRQVLRTLR-NH2)?
**A.** LC99.9 (μM) (50% plasma): 38.4 µM; LC99.9 (μM) (PBS): 0.6 µM

**Q.** What does the source list for `CC[C@H](C)[C@H](NC(=O)[C@@H](CCCCN)NC(=O)[C@H](CCCCN)NC(=O)[C@H](Cc1ccc(O)cc1)NC(=O)[C@H](CCC(=O)O)NC(=O)[C@H](CCCNC(=N)N)NC(=O)[C@H](C)NC(=O)[C@H](CC(C)C)NC(C)=O)C(=O)N[C@H](C(=O)N[C@@H](CCC(=O)O)C(=O)N[C@@H](CCCCN)C(=O)N[C@@H](CC(C)C)C(=O)N[C@@H](CCCCN)C(=O)N[C@@H](CCCNC(=N)N)C(=O)N[C@@H](Cc1c[nH]c2ccccc12)C(=O)N[C@@H](CC(C)C)C(=O)N[C@@H](CCCNC(=N)N)C(=O)N[C@@H](CCC(N)=O)C(=O)N[C@H](C(=O)N[C@@H](CC(C)C)C(=O)N[C@@H](CCCNC(=N)N)C(=O)N[C@H](C(=O)N[C@@H](CC(C)C)C(=O)N[C@@H](CCCNC(=N)N)C(N)=O)[C@@H](C)O)C(C)C)C(C)C` [Peptide 1301-7, JLAREYKkIVEKLKRWLRQVLRTLRB] (Ac-LAREYK[dK]IVEKLKRWLRQVLRTLR-NH2)?
**A.** LC99.9 (μM) (50% plasma): 25.6 µM; LC99.9 (μM) (PBS): 0.6 µM

**Q.** How did the “LC99.9 (μM) (50% plasma)” value turn out when `CC[C@@H](C)[C@@H](NC(=O)[C@H](CCCCN)NC(=O)[C@H](CCCCN)NC(=O)[C@H](Cc1ccc(O)cc1)NC(=O)[C@H](CCC(=O)O)NC(=O)[C@H](CCCNC(=N)N)NC(=O)[C@H](C)NC(=O)[C@H](CC(C)C)NC(C)=O)C(=O)N[C@H](C(=O)N[C@@H](CCC(=O)O)C(=O)N[C@@H](CCCCN)C(=O)N[C@@H](CC(C)C)C(=O)N[C@@H](CCCCN)C(=O)N[C@@H](CCCNC(=N)N)C(=O)N[C@@H](Cc1c[nH]c2ccccc12)C(=O)N[C@@H](CC(C)C)C(=O)N[C@@H](CCCNC(=N)N)C(=O)N[C@@H](CCC(N)=O)C(=O)N[C@H](C(=O)N[C@@H](CC(C)C)C(=O)N[C@@H](CCCNC(=N)N)C(=O)N[C@H](C(=O)N[C@@H](CC(C)C)C(=O)N[C@@H](CCCNC(=N)N)C(N)=O)[C@@H](C)O)C(C)C)C(C)C` [Peptide 1301-8, JLAREYKKiVEKLKRWLRQVLRTLRB] (Ac-LAREYKK[dI]VEKLKRWLRQVLRTLR-NH2) was run?
**A.** Its value is 38.4 µM.

**Q.** And the “LC99.9 (μM) (PBS)” value?
**A.** Its value is 0.6 µM.

**Q.** Which results are given for `CC[C@H](C)[C@H](NC(=O)[C@H](CCCCN)NC(=O)[C@H](CCCCN)NC(=O)[C@H](Cc1ccc(O)cc1)NC(=O)[C@H](CCC(=O)O)NC(=O)[C@H](CCCNC(=N)N)NC(=O)[C@H](C)NC(=O)[C@H](CC(C)C)NC(C)=O)C(=O)N[C@@H](C(=O)N[C@@H](CCC(=O)O)C(=O)N[C@@H](CCCCN)C(=O)N[C@@H](CC(C)C)C(=O)N[C@@H](CCCCN)C(=O)N[C@@H](CCCNC(=N)N)C(=O)N[C@@H](Cc1c[nH]c2ccccc12)C(=O)N[C@@H](CC(C)C)C(=O)N[C@@H](CCCNC(=N)N)C(=O)N[C@@H](CCC(N)=O)C(=O)N[C@H](C(=O)N[C@@H](CC(C)C)C(=O)N[C@@H](CCCNC(=N)N)C(=O)N[C@H](C(=O)N[C@@H](CC(C)C)C(=O)N[C@@H](CCCNC(=N)N)C(N)=O)[C@@H](C)O)C(C)C)C(C)C` [Peptide 1301-9, JLAREYKKIvEKLKRWLRQVLRTLRB] (Ac-LAREYKKI[dV]EKLKRWLRQVLRTLR-NH2)?
**A.** LC99.9 (μM) (50% plasma): 38.4 µM; LC99.9 (μM) (PBS): 0.6 µM

**Q.** Which results are given for `CC[C@H](C)[C@H](NC(=O)[C@H](CCCCN)NC(=O)[C@H](CCCCN)NC(=O)[C@H](Cc1ccc(O)cc1)NC(=O)[C@H](CCC(=O)O)NC(=O)[C@H](CCCNC(=N)N)NC(=O)[C@H](C)NC(=O)[C@H](CC(C)C)NC(C)=O)C(=O)N[C@H](C(=O)N[C@H](CCC(=O)O)C(=O)N[C@@H](CCCCN)C(=O)N[C@@H](CC(C)C)C(=O)N[C@@H](CCCCN)C(=O)N[C@@H](CCCNC(=N)N)C(=O)N[C@@H](Cc1c[nH]c2ccccc12)C(=O)N[C@@H](CC(C)C)C(=O)N[C@@H](CCCNC(=N)N)C(=O)N[C@@H](CCC(N)=O)C(=O)N[C@H](C(=O)N[C@@H](CC(C)C)C(=O)N[C@@H](CCCNC(=N)N)C(=O)N[C@H](C(=O)N[C@@H](CC(C)C)C(=O)N[C@@H](CCCNC(=N)N)C(N)=O)[C@@H](C)O)C(C)C)C(C)C` [Peptide 1301-10, JLAREYKKIVeKLKRWLRQVLRTLRB] (Ac-LAREYKKIV[dE]KLKRWLRQVLRTLR-NH2)?
**A.** LC99.9 (μM) (50% plasma): 38.4 µM; LC99.9 (μM) (PBS): 0.6 µM

**Q.** With `CC[C@H](C)[C@H](NC(=O)[C@H](CCCCN)NC(=O)[C@H](CCCCN)NC(=O)[C@H](Cc1ccc(O)cc1)NC(=O)[C@H](CCC(=O)O)NC(=O)[C@H](CCCNC(=N)N)NC(=O)[C@H](C)NC(=O)[C@H](CC(C)C)NC(C)=O)C(=O)N[C@H](C(=O)N[C@@H](CCC(=O)O)C(=O)N[C@H](CCCCN)C(=O)N[C@@H](CC(C)C)C(=O)N[C@@H](CCCCN)C(=O)N[C@@H](CCCNC(=N)N)C(=O)N[C@@H](Cc1c[nH]c2ccccc12)C(=O)N[C@@H](CC(C)C)C(=O)N[C@@H](CCCNC(=N)N)C(=O)N[C@@H](CCC(N)=O)C(=O)N[C@H](C(=O)N[C@@H](CC(C)C)C(=O)N[C@@H](CCCNC(=N)N)C(=O)N[C@H](C(=O)N[C@@H](CC(C)C)C(=O)N[C@@H](CCCNC(=N)N)C(N)=O)[C@@H](C)O)C(C)C)C(C)C` [Peptide 1301-11, JLAREYKKIVEkLKRWLRQVLRTLRB] (Ac-LAREYKKIVE[dK]LKRWLRQVLRTLR-NH2) as the compound, how does the “LC99.9 (μM) (50% plasma)” value read?
**A.** The value was 19.2 µM.

**Q.** And the “LC99.9 (μM) (PBS)” value?
**A.** Its value is 0.4 µM.

**Q.** What does the source list for `CC[C@H](C)[C@H](NC(=O)[C@H](CCCCN)NC(=O)[C@H](CCCCN)NC(=O)[C@H](Cc1ccc(O)cc1)NC(=O)[C@H](CCC(=O)O)NC(=O)[C@H](CCCNC(=N)N)NC(=O)[C@H](C)NC(=O)[C@H](CC(C)C)NC(C)=O)C(=O)N[C@H](C(=O)N[C@@H](CCC(=O)O)C(=O)N[C@@H](CCCCN)C(=O)N[C@H](CC(C)C)C(=O)N[C@@H](CCCCN)C(=O)N[C@@H](CCCNC(=N)N)C(=O)N[C@@H](Cc1c[nH]c2ccccc12)C(=O)N[C@@H](CC(C)C)C(=O)N[C@@H](CCCNC(=N)N)C(=O)N[C@@H](CCC(N)=O)C(=O)N[C@H](C(=O)N[C@@H](CC(C)C)C(=O)N[C@@H](CCCNC(=N)N)C(=O)N[C@H](C(=O)N[C@@H](CC(C)C)C(=O)N[C@@H](CCCNC(=N)N)C(N)=O)[C@@H](C)O)C(C)C)C(C)C` [Peptide 1301-12, JLAREYKKIVEKlKRWLRQVLRTLRB] (Ac-LAREYKKIVEK[dL]KRWLRQVLRTLR-NH2)?
**A.** LC99.9 (μM) (50% plasma): 32.0 µM; LC99.9 (μM) (PBS): 0.6 µM

**Q.** `CC[C@H](C)[C@H](NC(=O)[C@H](CCCCN)NC(=O)[C@H](CCCCN)NC(=O)[C@H](Cc1ccc(O)cc1)NC(=O)[C@H](CCC(=O)O)NC(=O)[C@H](CCCNC(=N)N)NC(=O)[C@H](C)NC(=O)[C@H](CC(C)C)NC(C)=O)C(=O)N[C@H](C(=O)N[C@@H](CCC(=O)O)C(=O)N[C@@H](CCCCN)C(=O)N[C@@H](CC(C)C)C(=O)N[C@H](CCCCN)C(=O)N[C@@H](CCCNC(=N)N)C(=O)N[C@@H](Cc1c[nH]c2ccccc12)C(=O)N[C@@H](CC(C)C)C(=O)N[C@@H](CCCNC(=N)N)C(=O)N[C@@H](CCC(N)=O)C(=O)N[C@H](C(=O)N[C@@H](CC(C)C)C(=O)N[C@@H](CCCNC(=N)N)C(=O)N[C@H](C(=O)N[C@@H](CC(C)C)C(=O)N[C@@H](CCCNC(=N)N)C(N)=O)[C@@H](C)O)C(C)C)C(C)C` [Peptide 1301-13, JLAREYKKIVEKLkRWLRQVLRTLRB] (Ac-LAREYKKIVEKL[dK]RWLRQVLRTLR-NH2) was tested. Which “LC99.9 (μM) (50% plasma)” value did it give?
**A.** Its value is 38.4 µM.

**Q.** What about the “LC99.9 (μM) (PBS)” value of the same compound?
**A.** The value was 0.6 µM.
